Experimental data published in patent US9095604B2, “Composition for preventing inflammations” (Meiji Co, Ltd., priority 2010, dated 2015).

How the values were obtained:
[1] = system: ulcerative colitis induced by dextran sodium sulfate (DSS); conditions: cited from earlier work
[2] = system: aryl hydrocarbon receptor (AhR); experiment: SEAP reporter assay in HeXS34 cells (pXRE-SEAP) for AhR-activating potency; assay type: cell-based, mouse; conditions: 10 μM αNF preincubated 30 minutes, then 10% v/v OLL1181 for 24 hours
Protocol: The HeXS34 cells prepared in (1) maintained in MEMα medium (Invitrogen, Carlsbad, Calif.) supplemented with 10% fetal bovine serum (FBS) were sown on a 96 well plate at 5000 cells/90 μL per well, and cultured for 24 hours in the presence of and in the absence of 10 μL (5×10^9 cells/mL) of a freeze-dried heat-sterilized lactic acid bacterium strain. […] Culture supernatants were subsequently subjected to an SEAP assay. The culture supernatant obtained in (2) was subjected to quantitative determination of SEAP by a chemiluminescence method using a Great EscAPe SEAP Chemiluminescence kit (Clontech). The assay was carried out three times, and the average value was determined using the luminescence intensity (LU) so obtained as the SEAP activity. […] In the same way as for Example 1, stimulation was carried out for 24 hours using heat-sterilized suspensions of the two types of lactic acid bacterium strains (5×10^9 cells/mL solution was added at 5% v/v and 10% v/v), and the culture supernatant was subjected to SEAP assay. […] (3).

[3] = system: CYP1A1 expression in Caco2 cells; experiment: CYP1A1 expression in Caco2 cells by quantitative real-time PCR; assay type: cell-based, human; conditions: 5 μM αNF preincubated 30 minutes
Protocol: Human Caco2 cells were cultured in DMEM medium (Invitrogen/Gibco, Carlsbad, Calif.) supplemented with 10% FBS and an antibiotic, a portion was preincubated with 5 μM αNF for 30 minutes, and both that which had been preincubated and that which had not been preincubated were subjected to stimulation with a 10% v/v heat-sterilized OLL1181 strain suspension for 4 hours.
The Caco2 cells obtained in (1) were subjected to quantitative real-time PCR. The quantitative real-time PCR was carried out using an ABI 7300 real-time PCR system (Applied Biosystems, Foster City, Calif.) in accordance with an instruction manual. With regard to a primer and a probe, those for human CYP1A1 (Assay ID: Hs02382618_s1) and those for glyceraldehyde-3-phosphate dehydrogenase (GAPDH) (Assay ID: Hs99999905_m1) (Applied Biosystems) were used. The level of CYP1A1 gene expression relative to the level of GAPDH gene expression was calculated and defined as the relative level of CYP1A1 gene expression.

[4] = system: PGE2 secretion by Caco2 cells; experiment: Prostaglandin E2 (PGE2) ELISA of Caco2 culture supernatant; assay type: cell-based; conditions: human Caco2 cells, αNF preincubation
[5] = DSS-treated mouse, compared with no TCDD

Row | Structure (SMILES) | Inflammation score [1, 5] | Production of inflammatory cytokines [1, 5] | Shortening of the intestinal tract [1, 5] | Weight loss [1, 5] | Inflammatory response of ulcerative colitis induced by DSS ([1]; mouse, in vivo) | Effect on the increase in SEAP activity caused by stimulation with the OLL1181 strain [2] | Effect on the OLL1181-induced increase of CYP1A1 expression [3] | Effect on PGE2 production by stimulation with the OLL1181 strain [4]
1 | Clc1cc2c(cc1Cl)Oc1cc(Cl)c(Cl)cc1O2 [TCDD, 2,3,7,8-tetrachlorodibenzo-p-dioxin] | significantly suppressed | significantly suppressed | significantly suppressed | significantly suppressed | suppresses |  |  | 
2 | O=c1cc(-c2ccccc2)oc2c1ccc1ccccc12 [αNF, α-naphthoflavone] |  |  |  |  |  | significantly inhibited | significantly suppressed | inhibited
